CCOc1cc(C=O)ccc1O
solubility (mole fraction)
Settings | 273.15 K | 278.15 K | 283.15 K | 288.15 K | 293.15 K | 298.15 K | 303.15 K | 308.15 K | 313.15 K
in acetone | 0.199 | 0.216 | 0.237 | 0.271 | 0.3 | 0.33 | 0.369 | 0.416 | 0.459
in ethanol | 0.0564 | 0.0721 | 0.0911 | 0.109 | 0.141 | 0.183 | 0.224 | 0.283 | 0.34
in isopropanol | 0.0336 | 0.0433 | 0.0552 | 0.072 | 0.0957 | 0.124 | 0.166 | 0.221 | 0.294
in methanol | 0.0867 | 0.114 | 0.147 | 0.181 | 0.214 | 0.257 | 0.307 | 0.358 | 0.418
